Test results as given in the Kinase Knowledgebase extract (Sharma et al. 2016).

Molecular target: MAPK14 (human) (UniProt Q16539)
Assay: Inhibition of MAPK14 Kinase Activity

Chain of MAPK14 (human) (Q16539 whole entry, looked up): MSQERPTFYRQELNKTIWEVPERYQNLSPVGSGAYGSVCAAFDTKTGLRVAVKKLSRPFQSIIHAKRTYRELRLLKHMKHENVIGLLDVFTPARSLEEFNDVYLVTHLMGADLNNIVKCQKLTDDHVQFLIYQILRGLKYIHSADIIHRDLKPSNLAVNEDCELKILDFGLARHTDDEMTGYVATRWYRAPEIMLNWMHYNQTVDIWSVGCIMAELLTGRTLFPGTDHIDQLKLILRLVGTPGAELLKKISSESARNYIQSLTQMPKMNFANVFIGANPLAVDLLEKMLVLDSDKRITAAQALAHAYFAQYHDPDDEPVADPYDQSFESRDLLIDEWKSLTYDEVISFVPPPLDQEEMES

| SMILES | IC50 [µM] |
| --- | --- |
| O=c1ccc2c(-c3ccccc3Cl)nc(NCCO)nc2n1-c1ccccc1Cl | < 10 |
| Cc1cc(F)ccc1-c1nc(NCC(C)(C)O)nc2c1ccc(=O)n2-c1ccccc1C | < 10 |
| CCC(CC)n1c(=O)ccc2c(-c3ccc(F)cc3C)nc(OC)nc21 | < 10 |
| CNC(=O)NCCNc1nc(-c2ccc(F)cc2C)c2ccc(=O)n(-c3c(F)cccc3F)c2n1 | < 10 |
| Cc1cc(F)ccc1-c1nc(NC(CO)CO)nc2c1ccc(=O)n2-c1c(C)cccc1C | < 10 |
| Cc1cc(CNc2nc(-c3ccc(F)cc3C)c3ccc(=O)n(-c4c(F)cccc4F)c3n2)on1 | < 10 |
| Cc1cc(F)ccc1-c1nc(NCC(C)(C)O)nc2c1ccc(=O)n2C1CCCCC1 | < 10 |
| CCCCOc1nc(-c2ccc(F)cc2C)c2ccc(=O)n(-c3c(F)cccc3F)c2n1 | < 10 |
| CSc1nc(-c2ccc(F)cc2C)c2ccc(=O)n(-c3ccccc3F)c2n1 | < 10 |
| CSc1nc(-c2ccc(F)cc2C)c2ccc(=O)n(-c3c(F)cccc3F)c2n1 | < 10 |
| Cc1cc(F)ccc1-c1nc(NC2CCOCC2)nc2c1ccc(=O)n2-c1ccccc1C | < 10 |
| Nc1nc(-c2ccccc2F)c2ccc(=O)n(-c3c(F)cccc3F)c2n1 | < 10 |
| Cc1cc(F)ccc1-c1nc(NC(C)(CO)CO)nc2c1ccc(=O)n2-c1ccccc1F | < 10 |
| Cc1cc(F)ccc1-c1nc(Nc2ccnc(=O)[nH]2)nc2c1ccc(=O)n2-c1c(F)cccc1F | < 10 |
| Cc1cc(F)ccc1-c1nc(NCC(=O)NCCO)nc2c1ccc(=O)n2-c1c(F)cccc1F | < 10 |
| CCOC(=O)NCCNc1nc(-c2ccc(F)cc2C)c2ccc(=O)n(-c3c(F)cccc3F)c2n1 | < 10 |
| CC(C)n1c(=O)ccc2c(-c3ccccc3F)nc(NS(C)(=O)=O)nc21 | < 10 |
| COCCNc1nc(-c2ccc(F)cc2C)c2ccc(=O)n(-c3c(F)cccc3F)c2n1 | < 10 |
| O=c1ccc2c(-c3ccccc3F)nc(NC(CO)CO)nc2n1-c1ccccc1F | < 10 |
| Cc1cc(F)ccc1-c1nc(NCCNC(=O)c2ccccc2)nc2c1ccc(=O)n2-c1c(F)cccc1F | < 10 |
| Cc1cc(F)ccc1-c1nc(N(C)S(C)(=O)=O)nc2c1ccc(=O)n2-c1c(F)cccc1F | < 10 |
